How the values were obtained:
Details in all cases: incubation time: 72 h
HDQ-P1 [1] = assay: normalised viability (% of control), CellTiter-Blue; higher = more viable cells (about 100 = DMSO control)
Procedure: (§1)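 DSRT, CellTiter-Blue viability, 72 h incubation. Signal is normalised to DMSO and benzethonium chloride controls. Value is the normalised response at dose 8.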

DU-4475 [2] = assay: as above
Procedure: as §1

CAL-51 [3] = assay: as above
Procedure: as §1

CAL-148 [4] = assay: as above
Procedure: as §1

CAL-85-1 [5] = assay: as above
Procedure: as §1

MDA-MB-453 [6] = assay: as above
Procedure: as §1

HDQ-P1 [7] = assay: as above; remark: listed apart in the source
Procedure: (§2)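 DSRT, CellTiter-Blue viability, 72 h incubation. Signal is normalised to DMSO and benzethonium chloride controls. Value is the normalised response at dose 9.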

DU-4475 [8] = assay: as above; remark: listed apart in the source
Procedure: as §2

CAL-51 [9] = assay: as above; remark: listed apart in the source
Procedure: as §2

CAL-148 [10] = assay: as above; remark: listed apart in the source
Procedure: as §2

CAL-85-1 [11] = assay: as above; remark: listed apart in the source
Procedure: as §2

MDA-MB-453 [12] = assay: as above; remark: listed apart in the source
Procedure: as §2

BT-549 = assay: drug sensitivity score (DSS), CellTiter-Blue viability (DSS (AUC-based score)); higher = stronger viability inhibition; extreme values may be limits of the assay
Procedure: (§3)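 DSRT with the CellTiter-Blue (resazurin reduction) viability readout, fluorescence 560/590 nm, 72 h incubation. Plates were normalised to DMSO and benzethonium chloride controls. DSS is computed from the area under the fitted dose-response curve (5 or 9 concentrations).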

MFM-223 = assay: as above
Procedure: as §3

HDQ-P1 [13] = assay: as above
Procedure: as §3

BT-474 = assay: as above
Procedure: as §3

HCC1599 = assay: as above
Procedure: as §3

MDA-MB-468 = assay: as above
Procedure: as §3

DU-4475 [14] = assay: as above
Procedure: as §3

SK-BR-3 = assay: as above
Procedure: as §3

CAL-51 [15] = assay: as above
Procedure: as §3

HCC1143 = assay: as above
Procedure: as §3

CAL-148 [16] = assay: as above
Procedure: as §3

CAL-85-1 [17] = assay: as above
Procedure: as §3

MDA-MB-231 = assay: as above
Procedure: as §3

CAL-120 = assay: as above
Procedure: as §3

MDA-MB-453 [18] = assay: as above
Procedure: as §3

Cc1cnc(NC(=O)Nc2cc(Br)c(C)cc2OC[C@@H]2CNCCO2)cn1
normalised viability (HDQ-P1 [1]; 300 nM): 96.2% | normalised viability (DU-4475 [2]; 300 nM): 102% | normalised viability (CAL-51 [3]; 300 nM): 103% | normalised viability (CAL-148 [4]; 300 nM): 107% | normalised viability (CAL-85-1 [5]; 300 nM): 88.1% | normalised viability (MDA-MB-453 [6]; 300 nM): 93.3% | normalised viability (HDQ-P1 [7]; 1000 nM): 106% | normalised viability (DU-4475 [8]; 1000 nM): 72% | normalised viability (CAL-51 [9]; 1000 nM): 89.3% | normalised viability (CAL-148 [10]; 1000 nM): 56.7% | normalised viability (CAL-85-1 [11]; 1000 nM): 68.3% | normalised viability (MDA-MB-453 [12]; 1000 nM): 65.2% | drug sensitivity score (BT-549): 0 | drug sensitivity score (MFM-223): 0 | drug sensitivity score (HDQ-P1 [13]): 0 | drug sensitivity score (BT-474): 0 | drug sensitivity score (HCC1599): 2.32 | drug sensitivity score (MDA-MB-468): 0 | drug sensitivity score (DU-4475 [14]): 0 | drug sensitivity score (SK-BR-3): 1.9 | drug sensitivity score (CAL-51 [15]): 0 | drug sensitivity score (HCC1143): 0 | drug sensitivity score (CAL-148 [16]): 0 | drug sensitivity score (CAL-85-1 [17]): 0 | drug sensitivity score (MDA-MB-231): 0 | drug sensitivity score (CAL-120): 0 | drug sensitivity score (MDA-MB-453 [18]): 0

CCCCC(=O)OCC(=O)[C@]1(O)Cc2c(O)c3c(c(O)c2[C@@H](O[C@H]2C[C@H](NC(=O)C(F)(F)F)[C@H](O)[C@H](C)O2)C1)C(=O)c1c(OC)cccc1C3=O [Valrubicin]
normalised viability (HDQ-P1 [1]; 3000 nM): 45.8% | normalised viability (DU-4475 [2]; 3000 nM): -1.61% | normalised viability (CAL-51 [3]; 3000 nM): 6.83% | normalised viability (CAL-148 [4]; 3000 nM): 0.71% | normalised viability (CAL-85-1 [5]; 3000 nM): 31.2% | normalised viability (MDA-MB-453 [6]; 3000 nM): 18.3% | normalised viability (HDQ-P1 [7]; 10000 nM): 52.9% | normalised viability (DU-4475 [8]; 10000 nM): -0.99% | normalised viability (CAL-51 [9]; 10000 nM): 2.32% | normalised viability (CAL-148 [10]; 10000 nM): 1.24% | normalised viability (CAL-85-1 [11]; 10000 nM): 18.6% | normalised viability (MDA-MB-453 [12]; 10000 nM): 16.2% | drug sensitivity score (BT-549): 7.75 | drug sensitivity score (MFM-223): 6.7 | drug sensitivity score (HDQ-P1 [13]): 9.44 | drug sensitivity score (BT-474): 5.42 | drug sensitivity score (HCC1599): 6.82 | drug sensitivity score (MDA-MB-468): 11.7 | drug sensitivity score (DU-4475 [14]): 25 | drug sensitivity score (SK-BR-3): 18.6 | drug sensitivity score (CAL-51 [15]): 20.6 | drug sensitivity score (HCC1143): 11.4 | drug sensitivity score (CAL-148 [16]): 21.1 | drug sensitivity score (CAL-85-1 [17]): 7.92 | drug sensitivity score (MDA-MB-231): 10.8 | drug sensitivity score (CAL-120): 15.3 | drug sensitivity score (MDA-MB-453 [18]): 11
